Blank lines part the entries; values can stand above or below the molecule they belong to.
Key:
[1] = system: Endothelin-1 receptor; assay: Endothelin-1 induced contraction of isolated artery rings; parameters: species or system mice; details: all concentrations of ET-1
Excerpt: FIG. 15 represents effect of Compound 1 on endothelin-1 concentration-response curves. (A) Concentration-response curve of endothelin-1 in isolated carotid arteries of vehicle-treated (Control) and Compound 1 treated mice. (B) Concentration-response curve of endothelin-1 in isolated carotid arteries of vehicle-treated (Control) and compound 3 along with compound 8 treated mice.
To test for the selectivity of the putative Endothelin-1 receptor, we applied endothelin-1 or Compound 1 in a concentration dependent manner to the […] to observe its contraction inhibition activity (FIG. 15).

[2] = system: HUVECs; assay: Capillary-like tube formation assay (tubulogenesis); assay type: cell-based, human; details: for tubule formation: 6 h
Description: FIG. 2 represents effect of Compound 1 on capillary tube formation of HUVECs. Endothelial cells in Matrigel were incubated with ECM basal medium in the presence of compound 1 at the indicated concentrations for 6 h. Cell viability was assessed by Calcein-AM dye added few min. before the completion of 6 h. then photographs at 10×magnification were taken using an inverted microscope. The tubule length of HUVECs was quantified by Leica QWin software. Tubule network formation is expressed as a percentage of that vehicle (0.1% DMSO) treated cells (control).
FIG. 9 represents effect of racemic mixture (chiral isomer 1-1 and chiral isomer 2-1) of Compound 1 on capillary tube formation of HUVECs. Endothelial cells seeded in matrigel were incubated at the indicated concentrations of compound 1 racemic mixtures (1-1 and 2-1) with ECM basal medium for 6 h. Calcein-AM treatment was added to the ECs few minutes before completion of 6 h and pictures were captured using an inverted microscope at 10×magnification. The tubular structures of HUVECs were measured using Leica QWin software and tubulogenesis was expressed as a % of that vehicle (0.1% DMSO) treated cells (control) well.
HUVEC cells were incubated with or without sunitinib (20 nM) for 6 h at indicated concentrations of chiral isomers of Compound 1 (1-1 and 2-1). Photographs were taken using an inverted microscope at 10×magnification after Calcein-AM treatment to the ECs few minutes before completion of 6 h. The tubule length of HUVECs was quantified by Leica QWin software represented as a % of that vehicle (0.1% DMSO) treated cells (control) well.
To examine the effect of Compound 1 on angiogenesis, capillary tube formation assay was performed on regular or reduced growth factor Matrigel, taking VEGF (50 ng/mL) treated cells as a positive control and sunitinib (50 nM) as a negative control (FIG. 2). HUVECs seeded onto the matrigel with compound 1 at different concentrations of (10 μM, 5 μM, 1 μM, 800 nM, 500 nM, 250 nM, 125 nM, 75 nM, 50 nM, 25 nM and 10 nM) were incubated for six hours.
HUVECs (Human Umbilical Vein Endothelial Cells) were seeded onto the pre-coated matrigel (CORNING; 354230) in 96 wells plate at the rate of 11000 cells/well in incomplete ECM basal medium. Control group received vehicle, VEGF at 50 ng/mL as a positive and sunitinib at 50 nM as a negative control were used. Compound 1 at different dose concentrations (10 μM, 5 μM, 1 μM, 800 nM, 500 nM, 250 nM, 100 nM, 75 nM, 50 nM and 25 nM) were employed on seeded HUVECs in incomplete medium. Post 6 h of incubation Calcein-AM (Invitrogen) was added to all the respective groups and then the tubule pattern was observed and photographs were taken using an inverted fluorescent microscope (DM 6000, Leica Microsystems, USA). Relative tubule lengths were measured using Leica Q-Win software version 3.5.1. (Leica Microsystems, Switzerland).

[3] = Intramuscular pharmacokinetic study of chiral isomers 1 and 2; assay type: in vivo, male Sprague Dawley (SD) rats; details: IM 20 mg/kg
Description: In vivo pharmacokinetic study was performed in male Sprague Dawley (SD) rats (n=4). Intramuscular (IM) formulation of compound 1 Chiral 1 and 2 were prepared by individually dissolving accurately weighed quantity of compound 1, chiral isomers 1 and 2 (20 mg) in 1 mL of olive oil followed by vortexing for 2 min and sterilize through syringe filter. Blood samples were collected from the retro orbital plexus of rats under light ether anesthesia into microfuge tubes containing heparin as an anti-coagulant at 0.25, 0.5, 1, 3, 5, 7, 9, 24, 30, 48 and 72 hours post-dosing after intramuscular dose. Plasma sample was harvested by centrifuging the blood at 13000 rpm for 10 min on Sigma 1-15 K (Frankfurt, Germany) and stored frozen at −70±10° C. until bioanalysis. Each plasma sample (100 μl) was processed using protein precipitation method using 200 μl acetonitrile containing medicarpine as internal standard (I.S.) as protein precipitant, and 10 μl of the supernatant was injected for LC-MS/MS.

[4] = Intramuscular pharmacokinetic study of bulk compound 1 and chiral isomers; assay type: in vivo, male Sprague Dawley (SD) rats; details: IM 20 mg/kg
Description: In vivo pharmacokinetic study was performed in male Sprague Dawley (SD) rats (n=4). Intramuscular (IM) formulation of bulk of compound 1 as well as chiral isomer-1 and chiral isomer-2 was prepared by dissolving accurately weighed quantity of compound 1 (20 mg) in 1 mL of olive oil followed by vortexing for 2 min and sterilize through syringe filter. Blood samples were collected from the retro orbital plexus of rats under light ether anesthesia into microfuge tubes containing heparin as an anti-coagulant at 0.25, 0.5, 1, 3, 5, 7, 9, 24, 30, 48 and 72 hours post-dosing after intramuscular dose. Plasma sample was harvested by centrifuging the blood at 13000 rpm for 10 min on Sigma 1-15 K (Frankfurt, Germany) and stored frozen at −70±10° C. until bioanalysis. Each plasma sample (100 μl) was processed using protein precipitation method using 200 μl acetonitrile containing medicarpine as internal standard (I.S.) as protein precipitant, and 10 μl of the supernatant was injected for LC-MS/MS.

[5] = system: HUVECs; assay: Wound healing (scratch) migration assay; assay type: cell-based, human; details: 50 ng/mL, positive control
Description: FIG. 4 represents In vitro wound closure assay showing effect of Compound 1 migration of HUVECs. (A) ECs were incubated with 2.5% FBS in the presence of VEGF, sunitinib and Compound 1 at the indicated concentrations for 24 h after linear scratched wounds were created in the confluent cells. Post treatment photographs were taken at 0 hr, 12 h and 24 h using an inverted microscope at 10×magnification. (B) Data were quantified using Image J software and graphs were plotted by calculating the % migration of that vehicle treated cells (control). Compound 1 inhibits the wound closure by ECs in a dose dependent manner. The values represent the mean±SEM from (n=3) independent experiments with significant difference compared from control at *p<0.05.
As per previous reports, some anti-angiogenic compounds also show anti-migratory effect by modulating the expression of proteins responsible for blood vessels formation. A Scratch was made to the confluent endothelial cells containing VEGF (50 ng/mL) and sunitinib (50 nM) as a positive and negative control respectively and Compound 1 at 250 nM and 125 nM as a test compound. […] This might contribute to its potent anti-angiogenic effect.
Endothelial cells were grown inside 6-well plate at a confluency rate of 90%. And then with the help of 200 μL tip a straight line scratch was made in the middle of the grown ECs. After giving a gentle wash with 1×PBS, control group received vehicle in 2.5% FBS media. VEGF at 50 ng/mL as a positive control and sunitinib at 50 nM concentration was used as a negative control. Compound 1 at a dose concentration of 250 nM and 125 nM were used onto the wounded cells to observe its anti-migratory effect. After 0 h, 12 h and 24 h of post treatment the wound closure area was observed and micrographed using an inverted microscope (Olympus, Centre Valley, Pa., USA) and were analysed by Image J software. Control well at 100% was used to express inhibition percentage and the assay was performed for three-five times independently.

- effect on ET-1 induced contraction of aortic rings [1]: no effect
Molecule: CCCCCCCCCCCCC1=NC1C(=O)OCC (centres unmarked) [Compound 3, Ethyl 3-dodecyl-2H-azirine-2-carboxylate]
- IC50 value ([2]; endothelial tubule network assay, result in words): Not Active

- effect on ET-1 induced contraction of aortic rings [1]: no effect
Molecule: CCOC(=O)C1N=C1CCc1ccc(Cl)cc1 (centres unmarked) [Compound 8, Ethyl 3-(4-chlorophenethyl)-2H-azirine-2-carboxylate]
- IC50 ([2]; Homo sapiens, HUVEC, endothelial tubule network assay, anti-angiogenic activity, read-out: IC50 value): 0.5 µM

- Tmax [3]: 3 h
- Plasma concentration ([3]; 0.25 h): 6640 ± 2170 ng/mL
- Plasma concentration ([3]; 0.5 h): 7440 ± 400 ng/mL
- Plasma concentration ([3]; 1 h): 9270 ± 1960 ng/mL
- Plasma concentration ([3]; 3 h): 10820 ± 1130 ng/mL
- Plasma concentration ([3]; 5 h): 7500 ± 560 ng/mL
- Plasma concentration ([3]; 7 h): 4300 ± 620 ng/mL
- Plasma concentration ([3]; 9 h): 2000 ± 660 ng/mL
- Plasma concentration ([3]; 24 h): 180 ± 13 ng/mL
- Plasma concentration ([3]; 30 h): 130 ± 15 ng/mL
- Plasma concentration ([3]; 48 h): 76 ± 4 ng/mL
- Plasma concentration ([3]; 72 h): 44 ± 6 ng/mL
- AUC0-72 ([3]; mean ± S.D., n = 4): 84900 ± 6020 ng·h/mL
- AUC0-∞ ([3]; mean ± S.D., n = 4): 85480 ± 6100 ng·h/mL
- Cl ([3]; mean ± S.D., n = 4): 3.83 ± 0.17 mL/min/kg
- Cmax ([3]; mean ± S.D., n = 4): 10820 ± 1130 ng/mL
- Vd ([3]; mean ± S.D., n = 4): 3.9 ± 0.24 L/kg
- t1/2 ([3]; mean ± S.D., n = 4): 9.14 ± 0.12 h
- Plasma concentration ([4]; 0.25 h): 409 ± 150 ng/mL
- Plasma concentration ([4]; 0.5 h): 767.6 ± 50 ng/mL
- Plasma concentration ([4]; 1 h): 557 ± 260 ng/mL
- Plasma concentration ([4]; 3 h): 745 ± 120 ng/mL
- Plasma concentration ([4]; 5 h): 762 ± 340 ng/mL
- Plasma concentration ([4]; 7 h): 536 ± 170 ng/mL
- Plasma concentration ([4]; 9 h): 463 ± 370 ng/mL
- Plasma concentration ([4]; 24 h): 323 ± 40 ng/mL
- Plasma concentration ([4]; 30 h): 246 ± 120 ng/mL
- Plasma concentration ([4]; 48 h): 169.3 ± 100 ng/mL
- Plasma concentration ([4]; 72 h): 44.3 ± 6 ng/mL
- AUC0-72 ([4]; mean ± S.D., n = 4): 19540 ± 3260 ng·h/mL
- AUC0-∞ ([4]; mean ± S.D., n = 4): 20644 ± 2977 ng·h/mL
- Cl ([4]; mean ± S.D., n = 4): 16.4 ± 2.17 mL/min/kg
- Cmax ([4]; mean ± S.D., n = 4): 945 ± 143 ng/mL
- Tmax ([4]; mean ± S.D., n = 4): 3 ± 2 h
- Vd ([4]; mean ± S.D., n = 4): 24.497 ± 6.339 L/kg
- t1/2 ([4]; mean ± S.D., n = 4): 17.11 ± 2.454 h
- MRT ([4]; mean ± S.D., n = 4, in h (unit assumed)): 22.671 ± 4.539
Molecule: CCOC(=O)[C@H]1N=C1CCc1ccc(OC)cc1 [chiral isomer (2-1)]
- tubule formation ([2]; 100 nM combined with sunitinib at 20 nM): around 30%
- tubule formation ([2]; 250 nM): 100%
- tubule formation ([2]; 500 nM): 50%
- tubule formation ([2]; 500 nM, listed as isomer (2-1)): 50%
- tubule formation ([2]; 1 μM): 50%

Molecule: VEGF [reference compound]
- wound closure [5]: 90%

Source: patent US20230234920A1, “Azirine Containing Compounds as Anti-Angiogenesis Agents and a Process for the Preparation Thereof” (COUNCIL OF SCIENTIFIC & INDUSTRIAL RESEARCH, priority 2020, published 2023)
